# According to ChEMBL document CHEMBL3044970, “Isoniazid: the magic molecule” (2012):
# Assays:
# Assay type in all cases: functional
# [1] = tested on: Mycobacterium tuberculosis; experiment: Antimicrobial activity against INH-resistant Mycobacterium tuberculosis by agar dilution method relative to isonicotinoyl hydrazide
# [2] = tested on: Mycobacterium tuberculosis; experiment: Antimicrobial activity against INH-resistant Mycobacterium tuberculosis
# [3] = tested on: Mycobacterium tuberculosis; experiment: Ratio of INH MIC to compound MIC for INH-resistant Mycobacterium tuberculosis
# [4] = Selectivity ratio of MIC for Mycobacterium tuberculosis H37Rv to MIC for INH-resistant Mycobacterium tuberculosis clinical isolate
# [5] = tested on: Mycobacterium tuberculosis; experiment: Antimicrobial activity against drug-resistant Mycobacterium tuberculosis infected in macrophages
smiles,measurement,setting,value
O=C(NNC(=S)Nc1ccccc1C(F)(F)F)c1ccncc1,Ratio,[1],157
same,MIC,[2],0.58 µM
COc1cc(C2=NN(C(=O)c3ccncc3)C(c3ccc(O)cc3)C2)ccc1OCC(=O)O (stereo unspecified),Ratio,[3],78
same,MIC,[2],0.12 µM
O=C(c1ccncc1)N1N=C(c2ccco2)CC1(O)C(F)(F)F (stereo unspecified),Selectivity ratio,[4],2
C/C(=N\NC(=O)c1ccncc1)c1cccc(F)c1,MIC,[5],< 0.05 µg/mL
